{"source": "ChEMBL document CHEMBL2321873", "about": "“1-(4-Phenylpiperazin-1-yl)-2-(1H-pyrazol-1-yl)ethanones as novel CCR1 antagonists” (Bioorg Med Chem Lett, 2013)", "key": {"[1]": {"target": "T1, Atypical chemokine receptor 1 (Homo sapiens) (UniProt Q16570)", "T1 sequence (whole entry)": "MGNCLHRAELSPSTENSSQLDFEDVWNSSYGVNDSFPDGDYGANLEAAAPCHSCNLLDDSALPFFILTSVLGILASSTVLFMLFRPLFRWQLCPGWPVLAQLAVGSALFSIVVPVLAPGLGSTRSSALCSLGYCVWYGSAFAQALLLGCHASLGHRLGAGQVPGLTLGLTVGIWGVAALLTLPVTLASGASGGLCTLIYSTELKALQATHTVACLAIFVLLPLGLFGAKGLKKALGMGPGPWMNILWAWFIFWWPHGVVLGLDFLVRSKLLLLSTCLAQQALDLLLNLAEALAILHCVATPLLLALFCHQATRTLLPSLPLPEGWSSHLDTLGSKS", "test": "Antagonist activity at Duffy (unknown origin) assessed as inhibition of chemotaxis at 10 uM"}, "[2]": {"target": "T2, C-X-C chemokine receptor type 3 (Homo sapiens) (UniProt P49682)", "T2 sequence (whole entry)": "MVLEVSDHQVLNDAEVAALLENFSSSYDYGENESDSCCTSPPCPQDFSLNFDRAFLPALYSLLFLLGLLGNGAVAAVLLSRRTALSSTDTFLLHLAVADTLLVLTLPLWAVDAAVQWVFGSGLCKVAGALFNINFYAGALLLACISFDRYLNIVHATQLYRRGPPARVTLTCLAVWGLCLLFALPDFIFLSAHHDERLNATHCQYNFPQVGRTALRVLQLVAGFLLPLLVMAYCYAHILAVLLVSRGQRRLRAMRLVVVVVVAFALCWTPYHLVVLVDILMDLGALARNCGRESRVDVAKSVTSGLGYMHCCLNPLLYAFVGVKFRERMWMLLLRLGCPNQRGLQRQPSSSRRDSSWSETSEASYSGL", "test": "Antagonist activity at CXCR3 (unknown origin) assessed as inhibition of chemotaxis at 10 uM"}, "[3]": {"target": "T3, C-C chemokine receptor type 3 (Homo sapiens) (UniProt P51677)", "T3 sequence (whole entry)": "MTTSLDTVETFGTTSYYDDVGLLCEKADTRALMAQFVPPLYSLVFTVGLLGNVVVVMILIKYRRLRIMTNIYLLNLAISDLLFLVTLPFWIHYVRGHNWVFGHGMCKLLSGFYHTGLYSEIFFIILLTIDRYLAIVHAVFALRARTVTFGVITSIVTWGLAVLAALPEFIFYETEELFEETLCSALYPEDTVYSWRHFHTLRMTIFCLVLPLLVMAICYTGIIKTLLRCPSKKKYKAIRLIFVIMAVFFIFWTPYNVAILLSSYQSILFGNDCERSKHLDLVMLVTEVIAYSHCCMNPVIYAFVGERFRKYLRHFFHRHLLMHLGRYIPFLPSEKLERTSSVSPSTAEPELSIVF", "test": "Antagonist activity at CCR3 (unknown origin) assessed as inhibition of chemotaxis at 10 uM"}, "[4]": {"target": "T4, C-X-C chemokine receptor type 5 (Homo sapiens) (UniProt P32302)", "T4 sequence (whole entry)": "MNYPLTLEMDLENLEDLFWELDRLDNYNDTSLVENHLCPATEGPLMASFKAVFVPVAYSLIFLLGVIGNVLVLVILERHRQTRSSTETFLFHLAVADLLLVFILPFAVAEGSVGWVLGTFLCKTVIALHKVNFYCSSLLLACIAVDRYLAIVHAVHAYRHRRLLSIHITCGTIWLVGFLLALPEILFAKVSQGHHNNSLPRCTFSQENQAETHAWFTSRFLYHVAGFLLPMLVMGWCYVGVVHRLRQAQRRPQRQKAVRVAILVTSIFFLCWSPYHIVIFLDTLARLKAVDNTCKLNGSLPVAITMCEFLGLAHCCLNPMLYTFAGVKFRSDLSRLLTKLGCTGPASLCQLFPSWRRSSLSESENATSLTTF", "test": "Antagonist activity at CXCR5 (unknown origin) assessed as inhibition of calcium flux at 10 uM", "format": "functional"}, "[5]": {"target": "T2, C-X-C chemokine receptor type 3 (Homo sapiens)", "test": "Antagonist activity at CXCR3 (unknown origin) assessed as inhibition of calcium flux at 10 uM", "format": "functional"}, "[6]": {"target": "T5, C-X-C chemokine receptor type 2 (Homo sapiens) (UniProt P25025)", "T5 sequence (whole entry)": "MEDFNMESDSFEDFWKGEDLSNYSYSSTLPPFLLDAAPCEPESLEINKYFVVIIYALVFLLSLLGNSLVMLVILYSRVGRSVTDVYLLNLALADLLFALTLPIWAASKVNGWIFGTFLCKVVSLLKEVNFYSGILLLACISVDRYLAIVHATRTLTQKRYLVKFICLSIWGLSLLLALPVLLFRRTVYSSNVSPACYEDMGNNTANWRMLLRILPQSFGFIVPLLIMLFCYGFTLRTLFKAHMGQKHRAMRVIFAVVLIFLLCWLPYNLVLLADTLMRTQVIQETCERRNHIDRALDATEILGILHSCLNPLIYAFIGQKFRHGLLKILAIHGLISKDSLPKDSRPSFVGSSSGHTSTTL", "test": "Antagonist activity at CXCR2 (unknown origin) assessed as inhibition of calcium flux at 10 uM", "format": "functional"}, "[7]": {"target": "T6, C-X-C chemokine receptor type 1 (Homo sapiens) (UniProt P25024)", "T6 sequence (whole entry)": "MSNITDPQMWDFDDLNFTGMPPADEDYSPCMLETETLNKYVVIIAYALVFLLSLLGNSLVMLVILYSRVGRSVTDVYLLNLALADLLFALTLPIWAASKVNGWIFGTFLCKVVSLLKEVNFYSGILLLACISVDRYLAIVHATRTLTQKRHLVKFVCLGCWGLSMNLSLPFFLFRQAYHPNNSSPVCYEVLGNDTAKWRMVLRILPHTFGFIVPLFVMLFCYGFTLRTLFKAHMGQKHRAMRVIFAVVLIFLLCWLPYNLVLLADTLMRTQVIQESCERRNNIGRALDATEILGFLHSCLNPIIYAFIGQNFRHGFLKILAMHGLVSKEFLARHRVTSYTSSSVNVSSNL", "test": "Antagonist activity at CXCR1 (unknown origin) assessed as inhibition of calcium flux at 10 uM", "format": "functional"}, "[8]": {"target": "T5, C-X-C chemokine receptor type 2 (Homo sapiens)", "test": "Binding affinity to CXCR2 (unknown origin) at 10 uM by radioligand displacement assay"}, "[9]": {"target": "C-C chemokine receptor type 8 (Homo sapiens) (UniProt P51685)", "sequence (P51685 whole entry)": "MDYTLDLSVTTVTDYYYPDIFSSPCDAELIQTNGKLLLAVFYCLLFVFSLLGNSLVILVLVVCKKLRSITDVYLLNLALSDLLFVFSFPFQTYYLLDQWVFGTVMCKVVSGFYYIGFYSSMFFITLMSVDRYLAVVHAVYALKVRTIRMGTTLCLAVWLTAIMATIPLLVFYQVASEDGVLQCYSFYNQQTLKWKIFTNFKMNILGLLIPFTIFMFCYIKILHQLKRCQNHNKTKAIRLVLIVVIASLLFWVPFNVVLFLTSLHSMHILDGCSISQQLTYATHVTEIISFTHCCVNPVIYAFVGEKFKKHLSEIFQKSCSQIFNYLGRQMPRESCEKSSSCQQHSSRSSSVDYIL", "test": "Binding affinity to CCR8 (unknown origin) at 10 uM by radioligand displacement assay"}, "[10]": {"target": "C-C chemokine receptor type 5 (Homo sapiens) (UniProt P51681)", "sequence (P51681 whole entry, looked up)": "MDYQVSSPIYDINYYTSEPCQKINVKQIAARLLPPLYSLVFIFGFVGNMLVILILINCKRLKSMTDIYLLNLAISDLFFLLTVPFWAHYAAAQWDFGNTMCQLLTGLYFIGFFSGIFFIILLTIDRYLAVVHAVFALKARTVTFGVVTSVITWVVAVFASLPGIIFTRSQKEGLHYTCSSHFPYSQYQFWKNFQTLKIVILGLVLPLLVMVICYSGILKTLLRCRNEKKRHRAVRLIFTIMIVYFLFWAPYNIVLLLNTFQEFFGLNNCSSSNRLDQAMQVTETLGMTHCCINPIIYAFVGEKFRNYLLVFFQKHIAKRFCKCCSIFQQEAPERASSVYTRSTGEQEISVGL", "test": "Binding affinity to CCR5 (unknown origin) at 10 uM by radioligand displacement assay"}, "Salmonella typhimurium": {"tested_on": "Salmonella typhimurium", "test": "Genotoxicity in Salmonella typhimurium by Ames test in absence of S9 fractions", "format": "toxicity, organism-based", "settings": "salmonella enterica subsp. enterica serovar typhimurium"}, "[11]": {"test": "Plasma clearance in Beagle dog at 1 mg/kg, iv", "format": "ADME, organism-based, Canis lupus familiaris", "parameters": "dose 1 mg/kg, route intravenous"}, "[12]": {"test": "Half life in Beagle dog at 1 mg/kg, iv", "format": "ADME, organism-based, Canis lupus familiaris", "parameters": "dose 1 mg/kg, route intravenous", "settings": "in vivo"}}, "note": "The source made the active and inactive calls. The calls are words filed in the database; no cut-off is given here."}
{"smiles": "COc1cc(N2CCN(C(=O)Cn3nc(C(F)(F)F)c(Cl)c3C)CC2)ccc1Cl", "values": [{"measurement": "inhibition", "setting": "[1]", "value": "inactive"}, {"measurement": "inhibition", "setting": "[2]", "value": "inactive"}, {"measurement": "inhibition", "setting": "[3]", "value": "inactive"}, {"measurement": "inhibition", "setting": "[4]", "value": "inactive"}, {"measurement": "inhibition", "setting": "[5]", "value": "inactive"}, {"measurement": "inhibition", "setting": "[6]", "value": "inactive"}, {"measurement": "inhibition", "setting": "[7]", "value": "inactive"}, {"measurement": "Activity", "setting": "[8]", "value": "inactive"}, {"measurement": "Activity", "setting": "[9]", "value": "inactive"}, {"measurement": "Activity", "setting": "[10]", "value": "inactive"}, {"measurement": "Activity", "setting": "Salmonella typhimurium", "value": "Non-toxic"}, {"measurement": "clearance", "setting": "[11]", "value": 9.6, "unit": "mL/min/kg"}, {"measurement": "half-life", "setting": "[12]", "value": 13.4, "unit": "h"}]}
